The record followed here is US20240374585A1, “EPITHELIAL SODIUM CHANNEL (ENAC) INHIBITOR CONJUGATES AND METHODS FOR USE THEREOF” (Lung Therapeutics, Inc., priority 2021, published 2024).

Where no end group is shown, it is not given here. [ ]: non-standard residue; d: D form. Aib = CC(C)(N)C(=O)O; Ahx = NCCCCCC(=O)O

For series [1], the target named is T1, neutrophil elastase (Homo sapiens, UniProt P08246).
T1 sequence (P08246 30-267): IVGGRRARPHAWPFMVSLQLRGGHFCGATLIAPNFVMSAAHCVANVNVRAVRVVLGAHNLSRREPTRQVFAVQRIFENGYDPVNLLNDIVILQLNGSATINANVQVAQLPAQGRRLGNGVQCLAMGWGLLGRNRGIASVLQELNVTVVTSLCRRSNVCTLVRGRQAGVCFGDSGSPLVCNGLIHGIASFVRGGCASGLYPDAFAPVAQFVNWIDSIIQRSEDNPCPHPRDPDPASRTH
Description: Experiments were therefore performed to determine the stability of the conjugates to protease cleavage.
The conjugates of the invention were incubated in PBS or PBS and 0.1 mg neutrophil elastase for 60 minutes at 37° C. The conjugates were then run on HPLC to determine their stability against protease cleavage.

The test system of series [2] is sheep model of cystic fibrosis. The experiment in a line: Tracheal mucous velocity (TMV) in sheep model of cystic fibrosis. The format is in vivo. As to the method:
The conjugates of the present invention were tested for their ability to increase lung mucociliary clearance in a sheep model of cystic fibrosis.
The peptide conjugates of the present invention were tested in vivo using a sheep model of cystic fibrosis as described in Scott et al., Am J. Resp. Crit. Care Med., 2017; 196 (6): 734-744; and Sabater et al., PLOS ONE, 2019; 14 (11): e0224764, hereby incorporated by reference in their entirety.
Briefly, tracheal mucous velocity (TMV) was determined in sheep by insufflation of radio-opaque Teflon disks into the trachea and measuring the movement of the disks over a 1 minute period by scintigraphy.
Intubated sheep were treated with the CFTR inhibitor INH-172 by nebulization, which caused a reduction in the mucus transport rate in the trachea. Once a baseline inhibited TMV was obtained at 4 hours following CFTR inhibition, then ENaC inhibitor conjugate (Conj. 13) or control was nebulized into the sheep lung and TMV measurements were repeated hourly.

The target in series [3] is T2, ENaC (Homo sapiens, UniProt P37088+P51168+P51170).
T2 construct: Primary NHBE cells were isolated from bronchi of normal healthy patients; endogenous in cells; host or cells: primary normal human bronchial epithelial (NHBE) cells, differentiated at air-liquid interface
T2 sequence (P37088 1-669): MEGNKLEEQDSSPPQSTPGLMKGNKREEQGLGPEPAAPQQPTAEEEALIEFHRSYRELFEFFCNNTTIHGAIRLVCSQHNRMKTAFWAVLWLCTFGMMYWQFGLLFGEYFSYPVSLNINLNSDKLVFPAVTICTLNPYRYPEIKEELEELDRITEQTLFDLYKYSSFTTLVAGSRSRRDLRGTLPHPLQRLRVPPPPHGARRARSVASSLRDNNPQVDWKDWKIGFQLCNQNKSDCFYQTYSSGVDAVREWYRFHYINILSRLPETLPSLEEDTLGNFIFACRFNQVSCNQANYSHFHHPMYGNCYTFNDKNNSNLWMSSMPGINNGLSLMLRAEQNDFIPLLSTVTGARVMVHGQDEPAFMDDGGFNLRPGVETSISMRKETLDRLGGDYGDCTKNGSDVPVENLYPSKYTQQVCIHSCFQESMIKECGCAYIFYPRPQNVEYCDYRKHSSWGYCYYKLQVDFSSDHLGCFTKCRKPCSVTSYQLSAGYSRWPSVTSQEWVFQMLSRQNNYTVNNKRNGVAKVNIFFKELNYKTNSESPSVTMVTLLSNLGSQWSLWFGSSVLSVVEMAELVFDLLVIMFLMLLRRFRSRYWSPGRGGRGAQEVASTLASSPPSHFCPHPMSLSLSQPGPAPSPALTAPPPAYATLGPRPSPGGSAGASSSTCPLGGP
T2 sequence (P51168 1-640): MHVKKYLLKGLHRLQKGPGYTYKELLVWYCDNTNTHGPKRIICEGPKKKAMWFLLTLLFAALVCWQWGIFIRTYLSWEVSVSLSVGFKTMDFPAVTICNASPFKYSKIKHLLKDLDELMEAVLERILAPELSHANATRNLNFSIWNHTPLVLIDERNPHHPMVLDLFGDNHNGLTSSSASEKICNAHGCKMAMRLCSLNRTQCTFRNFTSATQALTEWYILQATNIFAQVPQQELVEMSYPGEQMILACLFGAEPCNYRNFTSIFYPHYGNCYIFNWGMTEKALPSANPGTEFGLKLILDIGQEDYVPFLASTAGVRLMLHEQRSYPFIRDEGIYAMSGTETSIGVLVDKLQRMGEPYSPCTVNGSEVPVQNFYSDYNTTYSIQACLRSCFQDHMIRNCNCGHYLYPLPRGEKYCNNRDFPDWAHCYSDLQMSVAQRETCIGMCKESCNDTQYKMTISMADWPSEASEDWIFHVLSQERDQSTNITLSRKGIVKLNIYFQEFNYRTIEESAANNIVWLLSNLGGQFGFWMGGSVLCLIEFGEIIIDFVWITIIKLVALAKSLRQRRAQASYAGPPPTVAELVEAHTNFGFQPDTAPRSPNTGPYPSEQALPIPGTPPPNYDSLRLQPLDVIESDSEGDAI
T2 sequence (P51170 1-649): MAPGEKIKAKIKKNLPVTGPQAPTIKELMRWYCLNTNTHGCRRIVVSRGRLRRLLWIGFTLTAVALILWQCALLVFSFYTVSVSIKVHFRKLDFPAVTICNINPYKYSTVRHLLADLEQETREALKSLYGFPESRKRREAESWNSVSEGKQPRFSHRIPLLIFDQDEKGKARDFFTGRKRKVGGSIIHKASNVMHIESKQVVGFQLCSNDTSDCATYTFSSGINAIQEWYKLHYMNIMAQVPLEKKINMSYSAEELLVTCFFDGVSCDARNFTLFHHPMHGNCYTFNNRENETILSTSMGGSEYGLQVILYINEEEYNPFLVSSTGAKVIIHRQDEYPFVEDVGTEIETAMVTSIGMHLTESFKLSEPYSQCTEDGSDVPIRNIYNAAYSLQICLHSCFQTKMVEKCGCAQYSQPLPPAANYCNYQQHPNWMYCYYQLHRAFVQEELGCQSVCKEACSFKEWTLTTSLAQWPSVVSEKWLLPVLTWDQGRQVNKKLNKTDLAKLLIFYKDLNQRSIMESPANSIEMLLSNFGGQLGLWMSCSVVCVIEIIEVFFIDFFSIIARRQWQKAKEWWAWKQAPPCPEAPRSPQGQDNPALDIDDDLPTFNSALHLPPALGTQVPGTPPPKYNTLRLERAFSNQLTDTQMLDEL
Description: ENaC inhibition in NHBE cell monolayers, Ussing epithelial voltage clamp (short circuit current). The class given is cell-based. As to conditions: NHBE cell monolayers, Ussing chamber, apical addition, 35±2° C. As to the method: The objective of this study was to measure the ability of the illustrative conjugates to modulate ion transport function of ENAC in normal human bronchial epithelial (NHBE) cell monolayers. Sodium transport function of ENAC expressed in NHBE monolayers was evaluated using an Ussing epithelial voltage clamp apparatus. See, Hirsh et al., J. Pharmacol. Exp. Ther. 2008; 325:77-88, hereby incorporated by reference in its entirety.
Primary NHBE cells were isolated from bronchi of normal healthy patients, expanded in Lonza media (BEGM™ BulletKit™), and plated on Snapwell™ filters to form an epithelium. Cells on Snapwell™ inserts were grown for at least 21 days in Vertex Differentiation media and exposed to an air-liquid interface to promote differentiation. At least one day before the assay, mucous overlaying the apical surface was removed from the inserts by incubating the apical surface for about 30 minutes with ≥200 μL of differentiation media followed by aspiration of the mucous film and media.
The NHBE cell monolayers grown on Snapwell™ filter inserts were transferred to Physiologic Instruments Ussing recording chambers (Physiologic Instruments, Inc., San Diego, CA) and superfused with HB-PS. One or more 6-channel or 8-channel Physiologic Instruments VCC MC6 or VCC MC8 epithelial voltage clamps were used in combination to record short circuit current (ISC) from up to 24 inserts simultaneously. Air was used to operate the bubble lifts to rapidly circulate solutions in each Ussing chamber half and to aerate the monolayers.
Inserts were voltage clamped at 0 m V to record the ISC. Bumetanide (20 μM) was added to the basolateral side of all inserts. Test conjugates prepared as DMSO (Sigma-Aldrich) stocks were added cumulatively and sequentially to the apical Ussing chamber halves with at least 3 minutes between each addition.
Time and volume matched additions of DMSO to the basolateral side of the test conjugate treated inserts and both sides of the vehicle treated inserts was made to maintain osmotic balance across the epithelia. Transepithelial resistance was monitored with small voltage steps. The assay was performed at 35±2° C.
ENaC current at each test conjugate concentration was calculated as the peak current change produced by each test conjugate treated insert minus the mean current change produced by the corresponding DMSO additions to time-matched vehicle controls inserts. Cumulative difference data was fit to a Hill equation of the form: […]
Where IEnaC is the ISC peak difference current measured at each test conjugate concentration [Test].

“Ac-(AmilCC1)-K-(Aib)-SHLRKLRKRLL-NH2 (K[Aib]SHLRKLRKRLL-NH2; not fully specified (N-terminus); printed as Ac-(AmilCC1)-K-(Aib)-SHLRKLRKRLL-NH2; also: amiloride click conjugate (AmilCC1) at residue 1) [Conjugate 13, amiloride-peptide conjugate, click chemistry, L-alanine replaced by Aib]”: the “susceptibility to cleavage by neutrophil elastase” value in series [1] is reported as “drastically reduced susceptibility to cleavage by neutrophil elastase”. Also, in series [2] (0.25 mg/kg vs SPX-101 2 mg/kg), the “fold better than SPX-101 at restoring TMV in vivo” value is on record as “approximately 8 fold”. Also, the “restoration of TMV” value in series [2] (nebulized 0.125, 0.25 and 0.5 mg/kg after CFTR inhibitor INH-172, vs 0.9% saline, FIG. 5) was “dose-dependent restoration of TMV”. The “dose needed to restore TMV” value in series [2] (nebulized, sheep) is recorded as 0.25 mg/kg. Also, in series [2] (nebulized, sheep, vs 0.9% saline), the “period over which restoration of TMV was sustained” value was 8 h.
For “Ac-K-(Ahx)-ASHLRKLRKRLL-NH2 (Ac-K[Ahx]ASHLRKLRKRLL-NH2) [Peptide only Control 2, Peptide only control, reference compound]”, the “IC50 for the ENaC inhibition” value in series [3] is given as “Did not inhibit”.
The same measure, in the same setting: under “Ac-K-(Ahx)-VSKRR-NH2 (Ac-K[Ahx]VSKRR-NH2) [Peptide only Control 3, Peptide only control, reference compound]” stands “Did not inhibit”.
